# Test results published in patent US9113629B2, “4-amino-6-(4-substituted-phenyl)-picolinates and 6-amino-2-(4-substituted-phenyl)-pyrimidine-4-carboxylates and their use as herbicides” (DOW AGROSCIENCES LLC, priority 2013, dated 2015).
# Key:
# Assay in all cases: Post-emergent Test III, herbicidal activity in wheat and barley
# Format in all cases: in vivo
# [1] = tested on: VERPE: bird's-eye speedwell (veronica persica)
# Outline: (§1)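 Plants at the second to third true-leaf stage, grown in a greenhouse at about 18/17 °C with a 14 h photoperiod, were sprayed post-emergence at 187 L/ha with the high rate and ½× to 1/16× serial dilutions in an acetone/DMSO/crop-oil/surfactant carrier. Injury was rated visually at 21 d on a 0–100% scale, and GR20–GR90 were derived by probit analysis.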
# LAMSS = tested on: LAMSS
# Outline: as §1
# [2] = tested on: KCHSC: kochia (Kochia scoparia)
# Outline: as §1
# [3] = tested on: TRZSS: wheat, including spring and winter (Triticum aestivum)
# Outline: as §1
# [4] = tested on: LOLSS: ryegrass including, Italian ryegrass (Lolium multiflorum), rigid ryegrass (Lolium rigidum), annual ryegrass (Lolium multiflorum subsp. Gaudini); conditions: probit analysis, 21 days after application
# Outline: as §1
# [5] = tested on: SETVI: green foxtail (Setaria viridis)
# Outline: as §1
# [6] = tested on: MATSS: scented mayweed (Matricaria chamomilla), pineappleweed (Matricaria matricarioides)
# Outline: as §1
# [7] = tested on: HORSS: barley, including spring and winter (Hordeum vulgare)
# Outline: as §1
# [8] = probit analysis, dose for growth reduction of 50 percent, 21 days after application
# [9] = probit analysis, dose for growth reduction of 80 percent, 21 days after application
# [10] = probit analysis, dose for growth reduction of 20 percent, 21 days after application, crop
compound,measurement,setting,value
Nc1cc(-c2ccc(Br)c(F)c2F)nc(C(=O)O)c1Cl [Compound 91],pest or weed control at 35 g/ha,"[1]; Veronica persica, post-emergence, 504 h, 35 g ai/ha, read-out: Visual Growth Reduction (%) 21 Days After Application VERPE",30 to 44%
same,pest or weed control at 70 g/ha,"[1]; Veronica persica, post-emergence, 504 h, 70 g ai/ha, read-out: Visual Growth Reduction (%) 21 Days After Application VERPE",30 to 44%
same,pest or weed control at 140 g/ha,"[1]; Veronica persica, post-emergence, 504 h, 140 g ai/ha, read-out: Visual Growth Reduction (%) 21 Days After Application VERPE",45 to 59%
same,GR50 VERPE,[1]; [8],123 g ai/ha
same,GR80 VERPE,[1]; [9],>140 g ai/ha
same,pest or weed control at 35 g/ha,"LAMSS; post-emergence, 504 h, 35 g ai/ha, read-out: Visual Growth Reduction (%) 21 Days After Application LAMSS",95 to 100%
same,pest or weed control at 70 g/ha,"LAMSS; post-emergence, 504 h, 70 g ai/ha, read-out: Visual Growth Reduction (%) 21 Days After Application LAMSS",95 to 100%
same,pest or weed control at 140 g/ha,"LAMSS; post-emergence, 504 h, 140 g ai/ha, read-out: Visual Growth Reduction (%) 21 Days After Application LAMSS",95 to 100%
same,GR50 LAMSS,LAMSS; [8],1 g ai/ha
same,GR80 LAMSS,LAMSS; [9],3 g ai/ha
same,pest or weed control at 35 g/ha,"[2]; Bassia scoparia, post-emergence, 504 h, 35 g ai/ha, read-out: Visual Growth Reduction (%) 21 Days After Application KCHSC",75 to 84%
same,pest or weed control at 70 g/ha,"[2]; Bassia scoparia, post-emergence, 504 h, 70 g ai/ha, read-out: Visual Growth Reduction (%) 21 Days After Application KCHSC",85 to 94%
same,pest or weed control at 140 g/ha,"[2]; Bassia scoparia, post-emergence, 504 h, 140 g ai/ha, read-out: Visual Growth Reduction (%) 21 Days After Application KCHSC",85 to 94%
same,GR50 KCHSC,[2]; [8],2 g ai/ha
same,GR80 KCHSC,[2]; [9],47 g ai/ha
same,pest or weed control at 35 g/ha,"[3]; Triticum aestivum, post-emergence, 504 h, 35 g ai/ha, read-out: Visual Growth Reduction (%) 21 Days After Application TRZSS",75 to 84%
same,pest or weed control at 70 g/ha,"[3]; Triticum aestivum, post-emergence, 504 h, 70 g ai/ha, read-out: Visual Growth Reduction (%) 21 Days After Application TRZSS",85 to 94%
same,pest or weed control at 140 g/ha,"[3]; Triticum aestivum, post-emergence, 504 h, 140 g ai/ha, read-out: Visual Growth Reduction (%) 21 Days After Application TRZSS",85 to 94%
same,GR20 TRZSS,[3]; [10],1 g ai/ha
same,GR50 LOLSS,[4]; dose for growth reduction of 50 percent,>140 g ai/ha
same,GR80 LOLSS,[4]; dose for growth reduction of 80 percent,>140 g ai/ha
same,pest or weed control at 35 g/ha,"[5]; Setaria viridis, post-emergence, 504 h, 35 g ai/ha, read-out: Visual Growth Reduction (%) 21 Days After Application SETVI",60 to 74%
same,pest or weed control at 70 g/ha,"[5]; Setaria viridis, post-emergence, 504 h, 70 g ai/ha, read-out: Visual Growth Reduction (%) 21 Days After Application SETVI",75 to 84%
same,pest or weed control at 140 g/ha,"[5]; Setaria viridis, post-emergence, 504 h, 140 g ai/ha, read-out: Visual Growth Reduction (%) 21 Days After Application SETVI",75 to 84%
same,GR50 SETVI,[5]; [8],6 g ai/ha
same,GR80 SETVI,[5]; [9],105 g ai/ha
same,pest or weed control at 35 g/ha,"[6]; Matricaria chamomilla, post-emergence, 504 h, 35 g ai/ha, read-out: Visual Growth Reduction (%) 21 Days After Application MATSS",60 to 74%
same,pest or weed control at 70 g/ha,"[6]; Matricaria chamomilla, post-emergence, 504 h, 70 g ai/ha, read-out: Visual Growth Reduction (%) 21 Days After Application MATSS",75 to 84%
same,pest or weed control at 140 g/ha,"[6]; Matricaria chamomilla, post-emergence, 504 h, 140 g ai/ha, read-out: Visual Growth Reduction (%) 21 Days After Application MATSS",85 to 94%
same,GR50 MATSS,[6]; [8],11 g ai/ha
same,GR80 MATSS,[6]; [9],75 g ai/ha
same,pest or weed control at 35 g/ha,"[7]; Hordeum vulgare, post-emergence, 504 h, 35 g ai/ha, read-out: Visual Growth Reduction (%) 21 Days After Application HORSS",75 to 84%
same,pest or weed control at 70 g/ha,"[7]; Hordeum vulgare, post-emergence, 504 h, 70 g ai/ha, read-out: Visual Growth Reduction (%) 21 Days After Application HORSS",75 to 84%
same,pest or weed control at 140 g/ha,"[7]; Hordeum vulgare, post-emergence, 504 h, 140 g ai/ha, read-out: Visual Growth Reduction (%) 21 Days After Application HORSS",85 to 94%
same,GR20 HORSS,[7]; [10],1 g ai/ha
